Test results published in patent US8067445B2, “N,N-disubstituted aminoalkylbiphenyl antagonists of prostaglandin D2 receptors” (Panmira Pharmaceuticals, LLC, priority 2008, dated 2011).

Molecular target: T1, human DP2 receptor (Homo sapiens, UniProt Q9Y5Y4)
T1 construct: expressed in transfected cells
T1 sequence (Q9Y5Y4 1-395): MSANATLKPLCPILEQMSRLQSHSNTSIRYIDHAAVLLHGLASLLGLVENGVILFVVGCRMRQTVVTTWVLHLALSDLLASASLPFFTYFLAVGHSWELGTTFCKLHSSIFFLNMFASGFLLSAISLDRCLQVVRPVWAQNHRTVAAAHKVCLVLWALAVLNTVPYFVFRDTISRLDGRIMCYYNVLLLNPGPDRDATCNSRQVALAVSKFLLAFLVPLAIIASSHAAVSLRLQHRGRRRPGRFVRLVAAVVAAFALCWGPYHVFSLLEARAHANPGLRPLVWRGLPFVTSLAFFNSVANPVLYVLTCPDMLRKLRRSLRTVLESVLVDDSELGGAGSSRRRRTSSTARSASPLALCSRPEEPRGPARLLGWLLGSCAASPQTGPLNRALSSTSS
Assay: DP2/CRTH2 radioligand binding assay ([3H]PGD2)
Conditions: [3H]PGD2 binding, membranes of HEK293 cells expressing human DP2; read-out: hDP2
Method: The ability of a compound to bind to the human DP2 receptor is assessed via a radioligand binding assay using [^3H]PGD2. HEK293 cells stably expressing recombinant human DP2 are resuspended in 10 mM Hepes, 7.4 containing 1 mM DTT, lysed and centrifuged at 75,000×g to pellet the membranes. The membranes are resuspended in 10 mM Hepes, 7.4 containing 1 mM DTT and 10% glycerol to approximately 5 mg protein/ml. Membranes (2-10 μg protein/well) are incubated in 96-well plates with 1 nM [^3H]PGD2 and test compound in Assay Buffer (50 mM Hepes, 10 mM MnCl2, 1 mM EDTA, plus or minus 0.2% human serum albumin, pH 7.4) for 60 minutes at room temperature. The reactions are terminated by rapid filtration through Whatman GF/C glass fibre filter plates. The filter plates were pre-soaked in 0.33% polyethylenimine for 30 minutes at room temperature then washed in Wash Buffer (50 mM Hepes, 0.5 M NaCl pH 7.4) prior to harvesting. After harvesting, the filter plates are washed 3 times with 1 ml cold Wash Buffer then dried. Scintillant is then added to the plates and the radioactivity retained on the filters is determined on a Packard TopCount (Perkin Elmer). Specific binding is determined as total radioactive binding minus non-specific binding in the presence of 10 μM PGD2. IC50s were determined using GraphPad prism analysis of drug titration curves.

Row | SMILES | IC50 [nM]
1 | CCN(Cc1cc(C(F)(F)F)ccc1-c1cc(Cl)cc(C(C)C(=O)O)c1)C(=O)NCc1ccccc1 (stereo not shown) [Compound 1-223, 2-[2′-(3-Benzyl-1-ethyl-ureidomethyl)-5-chloro-4′-trifluoromethyl-biphenyl-3-yl]-propionic acid] | < 300
2 | CCN(Cc1cc(C(F)(F)F)ccc1-c1cc([C@H](C)C(=O)O)ccc1OC)C(=O)C1CC1 [Compound 1-225, (S)-2-{2′-[(Cyclopropanecarbonyl-ethyl-amino)-methyl]-6-methoxy-4′-trifluoromethyl-biphenyl-3-yl}-propionic acid] | 1000 to 30000
3 | CCOc1ccc(-c2ccc(-c3cc(CC(=O)O)ccc3OC)c(CN(CC)C(=O)COc3ccc(Cl)cc3)c2)cn1 [Compound 1-229, [2′-({[2-(4-Chloro-phenoxy)-acetyl]-ethyl-amino}-methyl)-4′-(6-ethoxy-pyridin-3-yl)-6-methoxy-biphenyl-3-yl]-acetic acid] | < 300
4 | CCN(Cc1cc(-c2ccc3ncccc3c2)ccc1-c1cc(CC(=O)O)ccc1OC)C(=O)C1CC1 [Compound 1-230, {2′-[(Cyclopropanecarbonyl-ethyl-amino)-methyl]-6-methoxy-4′-quinolin-6-yl-biphenyl-3-yl}-acetic acid] | < 300
5 | CCN(Cc1cc(-c2ccc3ncccc3c2)ccc1-c1cc(CC(=O)O)ccc1OC)C(=O)NCc1ccccc1 [Compound 1-231, [2′-(3-Benzyl-1-ethyl-ureidomethyl)-6-methoxy-4′-quinolin-6-yl-biphenyl-3-yl]-acetic acid] | < 300
6 | CCN(Cc1cc(-c2ccc3ncccc3c2)ccc1-c1cc(CC(=O)O)ccc1OC)C(=O)COc1ccc(Cl)cc1 [Compound 1-232, [2′-({[2-(4-Chloro-phenoxy)-acetyl]-ethyl-amino}-methyl)-6-methoxy-4′-quinolin-6-yl-biphenyl-3-yl]-acetic acid] | < 300
7 | CCN(Cc1cc(C(F)(F)F)ccc1-c1cc(C(F)(F)F)cc(C(C)(C)C(=O)O)c1)C(=O)C1CC1 [Compound 1-236, 2-{2′-[(Cyclopropanecarbonyl-ethyl-amino)-methyl]-5,4′-bis-trifluoromethyl-biphenyl-3-yl}-2-methyl-propionic acid] | 300 to 1000
8 | CCN(Cc1cc(C(F)(F)F)ccc1-c1cc([C@H](C)C(=O)O)cc(C(F)(F)F)c1)C(=O)C1CC1 [Compound 1-238, (S)-2-{2′-[(Cyclopropanecarbonyl-ethyl-amino)-methyl]-5,4′-bis-trifluoromethyl-biphenyl-3-yl}-propionic acid] | < 300
9 | CCN(Cc1cc(C(F)(F)F)ccc1-c1cc([C@@H](C)C(=O)O)cc(C(F)(F)F)c1)C(=O)NCc1ccccc1 [Compound 1-239, (R)-2-[2′-(3-Benzyl-1-ethyl-ureidomethyl)-5,4′-bis-trifluoromethyl-biphenyl-3-yl]-propionic acid] | < 300
10 | CCN(Cc1cc(C(F)(F)F)ccc1-c1cc([C@H](C)C(=O)O)cc(C(F)(F)F)c1)C(=O)NCc1ccccc1 [Compound 1-240, (S)-2-[2′-(3-Benzyl-1-ethyl-ureidomethyl)-5,4′-bis-trifluoromethyl-biphenyl-3-yl]-propionic acid] | < 300
11 | CCN(Cc1cc(SC)ccc1-c1cc(Cl)cc(CC(=O)O)c1)C(=O)C1CC1 [Compound 1-242, {5-Chloro-2′-[(cyclopropanecarbonyl-ethyl-amino)-methyl]-4′-methylsulfanyl-biphenyl-3-yl}-acetic acid] | < 300
12 | CCN(Cc1cc(C(F)(F)F)ccc1-c1cc(C(C)C(=O)O)ccc1OC)C(=O)NC1CC1 (stereo not shown) [Compound 1-243, 2-[2′-(3-Cyclopropyl-1-ethyl-ureidomethyl)-6-methoxy-4′-trifluoromethyl-biphenyl-3-yl]-propionic acid] | < 300
13 | CCN(Cc1cc(C(F)(F)F)ccc1-c1cc(CC(=O)O)ccc1OC)C(=O)C(C)(C)C [Compound 1-245, (2′-{[(2,2-Dimethyl-propionyl)-ethyl-amino]-methyl}-6-methoxy-4′-trifluoromethyl-biphenyl-3-yl)-acetic acid] | 1000 to 30000
14 | CCN(Cc1cc(-c2ccc(F)cn2)ccc1-c1cc(CC(=O)O)ccc1OC)C(=O)C1CC1 [Compound 1-249, [2′-[(Cyclopropanecarbonyl-ethyl-amino)-methyl]-4′-(5-fluoro-pyridin-2-yl)-6-methoxy-biphenyl-3-yl]-acetic acid] | < 300
15 | CCN(Cc1cc(-c2ncc(OC)cn2)ccc1-c1cc(CC(=O)O)ccc1OC)C(=O)C1CC1 [Compound 1-250, [2′-[(Cyclopropanecarbonyl-ethyl-amino)-methyl]-6-methoxy-4′-(5-methoxy-pyrimidin-2-yl)-biphenyl-3-yl]-acetic acid] | < 300
16 | CCOc1ccc(-c2ccc(-c3cc(CC(=O)O)ccc3OC)c(CN(CC)C(=O)c3ccccc3)c2)cn1 [Compound 1-254, [2′-[(Benzoyl-ethyl-amino)-methyl]-4′-(6-ethoxy-pyridin-3-yl)-6-methoxy-biphenyl-3-yl]-acetic acid] | < 300
17 | CCOc1ccc(-c2ccc(-c3cc(CC(=O)O)ccc3OC)c(CN(CC)C(=O)Cc3ccccc3)c2)cn1 [Compound 1-255, {4′-(6-Ethoxy-pyridin-3-yl)-2′-[(ethyl-phenylacetyl-amino)-methyl]-6-methoxy-biphenyl-3-yl}-acetic acid] | < 300
18 | CCOc1ccc(-c2ccc(-c3cc(CC(=O)O)ccc3OC)c(CN(CC)C(=O)CCc3ccccc3)c2)cn1 [Compound 1-256, (4′-(6-Ethoxy-pyridin-3-yl)-2′-{[ethyl-(3-phenyl-propionyl)-amino]-methyl}-6-methoxy-biphenyl-3-yl)-acetic acid] | < 300
19 | CCN(Cc1cc(C(F)(F)F)ccc1-c1cc([C@@H](C)C(=O)N[C@H](C)Cc2ccccc2)cc(C(F)(F)F)c1)C(=O)NCc1ccccc1 [Compound 2-10, (R)-2-[2′-(3-Benzyl-1-ethyl-ureidomethyl)-5,4′-bis-trifluoromethyl-biphenyl-3-yl]-N—((R)-1-methyl-2-phenyl-ethyl)-propionamide] | > 30000
20 | CCN(Cc1cc(C(F)(F)F)ccc1-c1cc([C@H](C)C(=O)N[C@H](C)Cc2ccccc2)cc(C(F)(F)F)c1)C(=O)NCc1ccccc1 [Compound 2-11, (S)-2-[2′-(3-Benzyl-1-ethyl-ureidomethyl)-5,4′-bis-trifluoromethyl-biphenyl-3-yl]-N—((R)-1-methyl-2-phenyl-ethyl)-propionamide] | < 300
21 | CCN(Cc1cc(C(F)(F)F)ccc1-c1cc([C@@H](C)C(=O)N2C(=O)O[C@@H](c3ccccc3)[C@H]2C)ccc1OC)C(=O)C1CC1 [Compound 2-12, Cyclopropanecarboxylic acid ethyl-{2′-methoxy-5′-[(R)-1-methyl-2-((4R,5S)-4-methyl-2-oxo-5-phenyl-oxazolidin-3-yl)-2-oxo-ethyl]-4-trifluoromethyl-biphenyl-2-ylmethyl}-amide] | > 30000
22 | CCN(Cc1cc(C(F)(F)F)ccc1-c1cc([C@H](C)C(=O)N2C(=O)O[C@@H](c3ccccc3)[C@H]2C)ccc1OC)C(=O)C1CC1 [Compound 2-13, Cyclopropanecarboxylic acid ethyl-{2′-methoxy-5′-[(S)-1-methyl-2-((4R,5S)-4-methyl-2-oxo-5-phenyl-oxazolidin-3-yl)-2-oxo-ethyl]-4-trifluoromethyl-biphenyl-2-ylmethyl}-amide] | 1000 to 30000
23 | CCOC(=O)Cc1ccc(OC)c(-c2ccc(C(=O)O)cc2CN(CC)C(=O)OCc2ccccc2)c1 [Compound 2-14, 2-[(Benzyloxycarbonyl-ethyl-amino)-methyl]-5′-ethoxycarbonylmethyl-2′-methoxy-biphenyl-4-carboxylic acid] | 1000 to 30000
24 | CCN(Cc1cc(C(F)(F)F)ccc1-c1cc([C@@H](C)C(=O)N2C(=O)O[C@@H](c3ccccc3)[C@H]2C)cc(C(F)(F)F)c1)C(=O)C1CC1 [Compound 2-15, Cyclopropanecarboxylic acid ethyl-{3′-[(R)-1-methyl-2-((4R,5S)-4-methyl-2-oxo-5-phenyl-oxazolidin-3-yl)-2-oxo-ethyl]-4,5′-bis-trifluoromethyl-biphenyl-2-ylmethyl}-amide] | 1000 to 30000
25 | CCN(Cc1cc(C(F)(F)F)ccc1-c1cc([C@H](C)C(=O)N2C(=O)O[C@@H](c3ccccc3)[C@H]2C)cc(C(F)(F)F)c1)C(=O)C1CC1 [Compound 2-16, Cyclopropanecarboxylic acid ethyl-{3′-[(S)-1-methyl-2((4R,5S)-4-methyl-2-oxo-5-phenyl-oxazolidin-3-yl)-2-oxo-ethyl]-4,5′-bis-trifluoromethyl-biphenyl-2-ylmethyl}-amide] | 1000 to 30000
